Source: patent publication US12303497B2, “Anti-androgens for the treatment of metastatic castration-sensitive prostate cancer” (priority 2019, dated 2025)

Tested on: patients with metastatic castration-sensitive prostate cancer (mCSPC)
[1] = within 30 days of last dose, n = 524

`CNC(=O)c1ccc(N2C(=S)N(c3cnc(C#N)c(C(F)(F)F)c3)C(=O)C23CCC3)cc1F` [Apalutamide, 4-[7-(6-cyano-5-trifluoromethylpyridin-3-yl)-8-oxo-6-thioxo-5,7-diazaspiro[3.4]oct-5-yl]-2-fluoro-N-methylbenzamide] was tested, and the “AE leading to dose interruption: Syncope” value (Grade ≥3) was 1 (0.2) no. (%), the “AE leading to dose interruption: Thrombocytopenia” value (Grade ≥3) was 0 no. (%) and the “AE leading to dose interruption: Tongue ulceration” value (Grade ≥3) was 0 no. (%). The “AE leading to dose interruption: Urethral stenosis” value (Grade ≥3) was 0 no. (%), the “AE leading to dose interruption: Urinary incontinence” value (Grade ≥3) was 0 no. (%) and the “AE leading to dose interruption: Urinary retention” value (Grade ≥3) was 2 (0.4) no. (%). For the same molecule, the “AE leading to dose interruption: Urinary tract obstruction” value (Grade ≥3) was 1 (0.2) no. (%), the “AE leading to dose interruption: Vertigo” value (Grade ≥3) was 1 (0.2) no. (%) and the “AE leading to dose interruption: Vomiting” value (Grade ≥3) was 0 no. (%). The “AE leading to dose interruption: Weight increased” value (Grade ≥3) was 0 no. (%), the “AE leading to dose reduction: Aspartate aminotransferase or alanine aminotransferase increased” value (Grade ≥3) was 0 no. (%) and the “AE leading to dose reduction: Asthenia” value (Grade ≥3) was 0 no. (%). For the same molecule, the “AE leading to dose reduction: Cognitive disorder” value (Grade ≥3) was 1 (0.2) no. (%), the “AE leading to dose reduction: Dehydration” value (Grade ≥3) was 0 no. (%) and the “AE leading to dose reduction: Fatigue” value (Grade ≥3) was 2 (0.4) no. (%). The “AE leading to dose reduction: General physical health deterioration” value (Grade ≥3) was 1 (0.2) no. (%), the “AE leading to dose reduction: Headache” value (Grade ≥3) was 0 no. (%) and the “AE leading to dose reduction: Hot flush” value (Grade ≥3) was 0 no. (%). The “AE leading to dose reduction: Hypertension” value (Grade ≥3) was 1 (0.2) no. (%), the “AE leading to dose reduction: Lethargy” value (Grade ≥3) was 0 no. (%) and the “AE leading to dose reduction: Neutropenia” value (Grade ≥3) was 2 (0.4) no. (%). The “AE leading to dose reduction: Pain” value (Grade ≥3) was 0 no. (%), the “AE leading to dose reduction: Performance status decreased” value (Grade ≥3) was 0 no. (%) and the “AE leading to dose reduction: Rash (grouped term)” value (Grade ≥3) was 11 (2.1) no. (%). For the same molecule, the “AE leading to dose reduction: Vertigo” value (Grade ≥3) was 1 (0.2) no. (%), the “AE leading to dose reduction: Weight decreased” value (Grade ≥3) was 1 (0.2) no. (%) and the “AE of special interest: Fall” value (Grade ≥3) was 4 (0.8) no. (%). For the same molecule, the “AE of special interest: Fracture (grouped term)” value (Grade ≥3) was 7 (1.3) no. (%), the “AE of special interest: Hypothyroidism (grouped term)” value (Grade ≥3) was 0 no. (%) and the “AE of special interest: Rash (grouped term)” value (Grade ≥3) was 33 (6.3) no. (%). The “AE of special interest: Seizure (grouped term)” value (Grade ≥3) was 1 (0.2) no. (%), the “Patients with treatment-emergent adverse events leading to discontinuation” value (Grade ≥3) was 26 (5.0) no. (%) and the “Patients with treatment-emergent adverse events leading to dose reduction” value (Grade ≥3) was 19 (3.6) no. (%). The “Patients with treatment-emergent events leading to dose interruption” value (Grade ≥3) was 68 (13.0) no. (%), the “TEAE: Anemia” value (Grade ≥3) was 9 (1.7) no. (%) and the “TEAE: Arthralgia” value (Grade ≥3) was 2 (0.4) no. (%). The “TEAE: Asthenia” value (Grade ≥3) was 10 (1.9) no. (%), the “TEAE: Back pain” value (Grade ≥3) was 12 (2.3) no. (%) and the “TEAE: Blood alkaline phosphatase increased” value (Grade ≥3) was 2 (0.4) no. (%). The “TEAE: Bone pain” value (Grade ≥3) was 6 (1.1) no. (%), the “TEAE: Constipation” value (Grade ≥3) was 0 no. (%) and the “TEAE: Fatigue” value (Grade ≥3) was 8 (1.5) no. (%). The “TEAE: Hot flush” value (Grade ≥3) was 0 no. (%), the “TEAE: Hypertension” value (Grade ≥3) was 44 (8.4) no. (%) and the “TEAE: Pain in extremity” value (Grade ≥3) was 3 (0.6) no. (%). The “TEAE: Pruritus” value (Grade ≥3) was 1 (0.2) no. (%), the “TEAE: Rash generalized” value (Grade ≥3) was 14 (2.7) no. (%) and the “TEAE: Urinary retention” value (Grade ≥3) was 0 no. (%). For the same molecule, the “TEAE: Weight increased” value (Grade ≥3) was 6 (1.1) no. (%), the “Patients who died as the result of an adverse event” value (Ten patients) was 1.9% and the Hypothyroidism reported (all events were grade 1 or 2) was 6.5%. The “AE leading to discontinuation: Suicide” value (in vivo) was 0 no. (%), the “AE leading to dose interruption: Acute kidney injury” value (in vivo) was 1 (0.2) no. (%) and the “AE leading to dose interruption: Acute respiratory failure” value (in vivo) was 1 (0.2) no. (%). The “AE leading to dose interruption: Allergy to chemicals” value (in vivo) was 1 (0.2) no. (%), the “AE leading to dose interruption: Anemia” value (in vivo) was 0 no. (%) and the “AE leading to dose interruption: Angina unstable” value (in vivo) was 0 no. (%). The “Frequency of grade 3 and 4 events” value (in vivo) was 42.2%, the “Frequency of serious adverse events” value (in vivo) was 19.8% and the “Grade 3 rashes” value (in vivo) was 6.3%. For the same molecule, the “Ischemic events led to death” value (in vivo) was “two”, the “Ischemic heart disease reported” value (in vivo) was 4.4% and the “Median time to onset of rash” value (in vivo) was 81 days. The “Most common event considered related to apalutamide: rash of any type” value (in vivo) was 6.3%, the “Rash of any grade (treatment-emergent skin rash)” value (in vivo) was 27.1% and the “Stevens-Johnson syndrome or toxic epidermal necrolysis” value (in vivo) was “No Stevens-Johnson syndrome or toxic epidermal necrolysis was reported”. The “All deaths within 30 days of last dose” value (investigator reported, n = 524) was 18 (3.4) no. (%), the “AE leading to death: Acute coronary syndrome” value (n = 524) was 0 no. (%) and the “AE leading to death: Acute kidney injury” value (n = 524) was 2 (0.4) no. (%). The “AE leading to death: Acute myocardial infarction” value (n = 524) was 1 (0.2) no. (%), the “AE leading to death: Cardiac failure” value (n = 524) was 0 no. (%) and the “AE leading to death: Cardio-respiratory arrest” value (n = 524) was 1 (0.2) no. (%). The “AE leading to death: Cardiogenic shock” value (n = 524) was 1 (0.2) no. (%), the “AE leading to death: Cerebrovascular accident” value (n = 524) was 1 (0.2) no. (%) and the “AE leading to death: Death” value (n = 524) was 0 no. (%). For the same molecule, the “AE leading to death: Hypothermia” value (n = 524) was 0 no. (%), the “AE leading to death: Intracranial hemorrhage” value (n = 524) was 0 no. (%) and the “AE leading to death: Myocardial infarction” value (n = 524) was 1 (0.2) no. (%). For the same molecule, the “AE leading to death: Pulmonary embolism” value (n = 524) was 0 no. (%), the “AE leading to death: Respiratory failure” value (n = 524) was 1 (0.2) no. (%) and the “AE leading to death: Sepsis” value (n = 524) was 0 no. (%). The “AE leading to death: Subdural hemorrhage” value (n = 524) was 0 no. (%), the “AE leading to death: Sudden cardiac death” value (n = 524) was 1 (0.2) no. (%) and the “AE leading to death: Sudden death” value (n = 524) was 0 no. (%). For the same molecule, the “AE leading to death: Suicide” value (n = 524) was 0 no. (%), the “AE leading to death: Urosepsis” value (n = 524) was 0 no. (%) and the “AE leading to death: Vascular rupture” value (n = 524) was 0 no. (%). For the same molecule, the “Adverse event leading to death” value (n = 524) was 10 (1.9) no. (%), the Any adverse event (n = 524) was 507 (96.8) no. (%) and the “Any adverse event leading to treatment discontinuation” value (n = 524) was 42 (8.0) no. (%). The “Any serious adverse event” value (n = 524) was 104 (19.8) no. (%), the “Grade 3 or 4 adverse event” value (n = 524) was 221 (42.2) no. (%) and the “Patients with adverse events as the primary reason for discontinuation” value (n = 525) was 39 (7.4) no. (%). The “Patients with adverse events leading to discontinuation” value (n = 525 (Table 5)) was 42 (8.0) no. (%), the “Death due to adverse event” value [1] was 10 (1.9) no. (%) and the “Death due to prostate cancer” value [1] was 8 (1.5) no. (%).
